# According to PMC11428279, “Exploring Structure–Activity Relationships and Modes of Action of Laterocidine” (ACS Central Science, 2024):
# Bridge positions count the residues as written; N and C are the ends. Square brackets hold non-standard residues; d marks the D form. Peptide text beside a SMILES is read from it. * marks the point of attachment. Pen = CC(C)(S)[C@H](N)C(=O)O; dOrn = NCCC[C@@H](N)C(=O)O; Nonanoyl = CCCCCCCCC(=O)*; Orn = NCCC[C@H](N)C(=O)O; Dap = NC[C@H](N)C(=O)O
# Tested on: Gram-negative strains of P. aeruginosa, A. baumannii, K. pneumoniae, and E. cloacae
# Assay type: cell-based
# Experimental: MICs for laterocidine and its various analogues were determined by broth microdilution[49] for the following polymyxin-susceptible ATCC and clinical isolates: P. aeruginosa FADDI-PA022, FADDI-PA001, FADDI-PA025, FADDI-PA070, FADDI-PA060; A. baumannii FADDI-AB134, FADDI-AB034, FADDI-AB030, FADDI-AB174, FADDI-AB241; K. pneumoniae FADDI-KP032, FADDI-KP022, BM1, FADDI-KP065, FADDI-KP064, FADDI-KP003; and E. cloacae FADDI-EC001, FADDI-EC003, and FADDI-EC006. Experiments were performed with cation-adjusted Mueller–Hinton broth (CAMHB) in 96-well polystyrene microtiter plates. Wells were inoculated with 100 μL of bacterial suspension prepared in CAMHB (containing ∼10^6 CFU/mL) and 100 μL of CAMHB containing increasing concentrations of polymyxins (0–32 μg/mL). MIC measurements were performed in duplicate, with the MIC being the lowest concentration at which visible growth was inhibited following 18–20 h of incubation at 37 °C. Bacterial killing kinetics was investigated over 24 h as described previously.[50]
# [1] = compared with native laterocidine
MICs against P. aeruginosa and A. baumannii (range) [µg/mL],fold increase in MIC (loss of activity) against all strains / all species [1],SMILES,also measured
,,"CC[C@H](C)[C@@H]1NC(=O)[C@@H](N)[C@@H](C)OC(=O)CNC(=O)CNC(=O)[C@H](CC(N)=O)NC1=O [Peptide 13] (HELM PEPTIDE1{[C[C@@H](O[*:3])[C@H](N)C(=O)[*:2]].I.N.G.G}$PEPTIDE1,PEPTIDE1,1:R3-5:R2$$$V2.0)",MICs against all tested strains (range): > 32 µg/mL
,,CC[C@H](C)[C@@H]1NC(=O)[C@@H](NC(=O)[C@H](Cc2c[nH]c3ccccc23)NC(=O)[C@@H](CCCN)NC(=O)CNC(=O)[C@H](CCCN)NC(=O)[C@@H](CCCN)NC(=O)[C@@H](Cc2c[nH]c3ccccc23)NC(=O)[C@@H](Cc2ccc(O)cc2)NC(=O)[C@H](N)CO)[C@@H](C)OC(=O)CNC(=O)CNC(=O)[C@H](CC(N)=O)NC1=O [Peptide 14] (H-[dS][dY][dW][dOrn][Orn]G[dOrn]WTINGG; ester 9-C),MICs against all tested strains (range): > 32 µg/mL
> 32,,CCCCCCCCC(=O)N[C@H](CO)C(=O)N[C@H](Cc1ccc(O)cc1)C(=O)N[C@H](Cc1c[nH]c2ccccc12)C(=O)N[C@H](CCCN)C(=O)N[C@@H](CCCN)C(=O)NCC(=O)N[C@H](CCCN)C(=O)N[C@@H](Cc1c[nH]c2ccccc12)C(=O)N[C@H]1CNC(=O)CNC(=O)CNC(=O)[C@H](CC(N)=O)NC(=O)[C@H]([C@@H](C)CC)NC1=O [Peptide 16] (Nonanoyl-[dS][dY][dW][dOrn][Orn]G[dOrn]W[Dap]INGG; lactam 9-C),
> 32,,CCCCCCCCC(=O)N[C@H](CO)C(=O)N[C@H](Cc1ccc(O)cc1)C(=O)N[C@H](Cc1c[nH]c2ccccc12)C(=O)N[C@H](CCCN)C(=O)N[C@@H](CCCN)C(=O)NCC(=O)N[C@H](CCCN)C(=O)N[C@@H](Cc1c[nH]c2ccccc12)C(=O)N[C@@H]1C(=O)N[C@@H]([C@@H](C)CC)C(=O)N[C@@H](CC(N)=O)C(=O)NCC(=O)NCC(=O)N[C@@H]1C [Peptide 17],
,2–8 fold,CCCCCCCCC(=O)N[C@H](CO)C(=O)N[C@H](Cc1ccc(O)cc1)C(=O)N[C@H](Cc1c[nH]c2ccccc12)C(=O)N[C@H](CCCN)C(=O)N[C@@H](CCCN)C(=O)NCC(=O)N[C@H](CCCN)C(=O)N[C@@H](Cc1c[nH]c2ccccc12)C(=O)N[C@@H]1C(=O)N[C@@H]([C@@H](C)CC)C(=O)N[C@@H](CC(N)=O)C(=O)NCC(=O)N[C@H](C(=O)O)CSSC1(C)C [Peptide 18] (Nonanoyl-[dS][dY][dW][dOrn][Orn]G[dOrn]W[Pen]INGC-OH; disulfide 9-13; C-terminus assumed),
8 to 32,,CCCCCCCCC(=O)N[C@H](CO)C(=O)N[C@H](Cc1ccc(O)cc1)C(=O)N[C@H](Cc1c[nH]c2ccccc12)C(=O)N[C@H](CCCN)C(=O)N[C@@H](CCCN)C(=O)NCC(=O)N[C@H](CCCN)C(=O)N[C@@H](Cc1c[nH]c2ccccc12)C(=O)N[C@H](C(=O)N[C@H](C(=O)N[C@@H](CC(N)=O)C(=O)NCC(=O)NCC(=O)O)[C@@H](C)CC)[C@@H](C)O [Peptide 19] (Nonanoyl-[dS][dY][dW][dOrn][Orn]G[dOrn]WTINGG-OH),MICs against K. pneumoniae and E. cloacae (range): 4 to 32 µg/mL; fold increase in MIC for K. pneumoniae and E. cloacae [1]: 2–4 fold; fold increase in MIC for P. aeruginosa and A. baumannii [1]: 2–8 fold
,,CCCCCCCCC(=O)N[C@H](CO)C(=O)N[C@H](Cc1ccc(O)cc1)C(=O)N[C@H](Cc1c[nH]c2ccccc12)C(=O)N[C@H](CCCN)C(=O)N[C@@H](CCCN)C(=O)NCC(=O)N[C@H](CCCN)C(=O)N[C@@H](Cc1c[nH]c2ccccc12)C(=O)N[C@H](C(=O)N[C@H](C(=O)N[C@@H](CC(N)=O)C(=O)NCC(=O)NCC(N)=O)[C@@H](C)CC)[C@@H](C)O [Peptide 20] (Nonanoyl-[dS][dY][dW][dOrn][Orn]G[dOrn]WTINGG-NH2),"MICs against P. aeruginosa, K. pneumoniae, and E. cloacae (range): 4 to 32 µg/mL; fold increase in MIC against P. aeruginosa, K. pneumoniae, and E. cloacae [1]: 2–4 fold"
,,CCCCCCCCC(=O)N[C@H](CO)C(=O)N[C@H](Cc1ccc(O)cc1)C(=O)N[C@H](Cc1c[nH]c2ccccc12)C(=O)N[C@H](CCCN)C(=O)N[C@@H](CCCN)C(=O)NCC(=O)N[C@H](CCCN)C(=O)N[C@@H](Cc1c[nH]c2ccccc12)C(=O)N[C@H](C(=O)N[C@H](C(=O)N[C@@H](CC(N)=O)C(=O)NCC(N)=O)[C@@H](C)CC)[C@@H](C)O [Peptide 21] (Nonanoyl-[dS][dY][dW][dOrn][Orn]G[dOrn]WTING-NH2),"fold increase in MIC against P. aeruginosa, K. pneumoniae, and E. cloacae [1]: 1–2 fold"
2 to 16,no more than 1 fold,CCCCCCCCC(=O)N[C@H](CO)C(=O)N[C@H](Cc1ccc(O)cc1)C(=O)N[C@H](Cc1c[nH]c2ccccc12)C(=O)N[C@H](CCCN)C(=O)N[C@@H](CCCN)C(=O)NCC(=O)N[C@H](CCCN)C(=O)N[C@@H](Cc1c[nH]c2ccccc12)C(=O)N[C@@H]1C(=O)N[C@@H]([C@@H](C)CC)C(=O)N[C@@H](CC(N)=O)C(=O)N[C@@H](C)C(=O)NCC(=O)O[C@@H]1C [Peptide 25] (Nonanoyl-[dS][dY][dW][dOrn][Orn]G[dOrn]WTINAG; ester 9-C),
2 to 16,no more than 1 fold,CCCCCCCCC(=O)N[C@H](CO)C(=O)N[C@H](Cc1ccc(O)cc1)C(=O)N[C@H](Cc1c[nH]c2ccccc12)C(=O)N[C@H](CCCN)C(=O)N[C@@H](CCCN)C(=O)NCC(=O)N[C@H](CCCN)C(=O)N[C@@H](Cc1c[nH]c2ccccc12)C(=O)N[C@@H]1C(=O)N[C@@H]([C@@H](C)CC)C(=O)N[C@@H](C)C(=O)NCC(=O)NCC(=O)O[C@@H]1C [Peptide 26] (Nonanoyl-[dS][dY][dW][dOrn][Orn]G[dOrn]WTIAGG; ester 9-C),
,2–4 fold,CCCCCCCCC(=O)N[C@H](CO)C(=O)N[C@H](Cc1ccc(O)cc1)C(=O)N[C@H](Cc1c[nH]c2ccccc12)C(=O)N[C@H](CCCN)C(=O)N[C@@H](CCCN)C(=O)NCC(=O)N[C@H](C)C(=O)N[C@@H](Cc1c[nH]c2ccccc12)C(=O)N[C@@H]1C(=O)N[C@@H]([C@@H](C)CC)C(=O)N[C@@H](CC(N)=O)C(=O)NCC(=O)NCC(=O)O[C@@H]1C [Peptide 29] (Nonanoyl-[dS][dY][dW][dOrn][Orn]G[dA]WTINGG; ester 9-C),
,2–8 fold,CCCCCCCCC(=O)N[C@H](CO)C(=O)N[C@H](Cc1ccc(O)cc1)C(=O)N[C@H](Cc1c[nH]c2ccccc12)C(=O)N[C@H](CCCN)C(=O)N[C@@H](C)C(=O)NCC(=O)N[C@H](CCCN)C(=O)N[C@@H](Cc1c[nH]c2ccccc12)C(=O)N[C@@H]1C(=O)N[C@@H]([C@@H](C)CC)C(=O)N[C@@H](CC(N)=O)C(=O)NCC(=O)NCC(=O)O[C@@H]1C [Peptide 31] (Nonanoyl-[dS][dY][dW][dOrn]AG[dOrn]WTINGG; ester 9-C),
,2–8 fold,CCCCCCCCC(=O)N[C@H](CO)C(=O)N[C@H](Cc1ccc(O)cc1)C(=O)N[C@H](Cc1c[nH]c2ccccc12)C(=O)N[C@H](C)C(=O)N[C@@H](CCCN)C(=O)NCC(=O)N[C@H](CCCN)C(=O)N[C@@H](Cc1c[nH]c2ccccc12)C(=O)N[C@@H]1C(=O)N[C@@H]([C@@H](C)CC)C(=O)N[C@@H](CC(N)=O)C(=O)NCC(=O)NCC(=O)O[C@@H]1C [Peptide 32] (Nonanoyl-[dS][dY][dW][dA][Orn]G[dOrn]WTINGG; ester 9-C),
